Data taken from PubChem BioAssay (NCI).
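Abbreviation: GI50, concentration required for 50% inhibition of growth. TGI marks complete inhibition of growth.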

Key:
Test in all cases: inhibition of tumour cell growth, NCI panel, 384-well format
PC-3 prostate = tested on: PC-3 prostate
ACHN renal = tested on: ACHN renal
OVCAR-4 ovarian = tested on: OVCAR-4 ovarian
U251 glioblastoma = tested on: U251 glioblastoma
MDA-MB-435 melanoma = tested on: MDA-MB-435 melanoma
SF-539 CNS = tested on: SF-539 CNS
OVCAR-3 ovarian = tested on: OVCAR-3 ovarian
CAKI-1 renal = tested on: CAKI-1 renal
SN12C renal = tested on: SN12C renal
EKVX NSCLC = tested on: EKVX NSCLC
SW-620 colon = tested on: SW-620 colon
T-47D breast = tested on: T-47D breast
K-562 leukemia = tested on: K-562 leukemia
HOP-92 NSCLC = tested on: HOP-92 NSCLC
UO-31 renal = tested on: UO-31 renal
MALME-3M melanoma = tested on: MALME-3M melanoma
HOP-62 NSCLC = tested on: HOP-62 NSCLC
BT-549 breast = tested on: BT-549 breast
SK-MEL-5 melanoma = tested on: SK-MEL-5 melanoma
A498 renal = tested on: A498 renal
KM12 colon = tested on: KM12 colon
SK-MEL-28 melanoma = tested on: SK-MEL-28 melanoma
SF-268 CNS = tested on: SF-268 CNS
CCRF-CEM leukemia = tested on: CCRF-CEM leukemia
NCI-H522 lung = tested on: NCI-H522 lung
SK-OV-3 ovarian = tested on: SK-OV-3 ovarian
RPMI-8226 leukemia = tested on: RPMI-8226 leukemia
MCF7 breast = tested on: MCF7 breast
UACC-257 melanoma = tested on: UACC-257 melanoma

**Q.** With `O=C(c1ccc(F)c(F)c1Nc1ccc(I)cc1F)N1CC(O)([C@H]2CCCCN2)C1` as the molecule, how does the GI50 (PC-3 prostate) read?
**A.** 5.64 µM

**Q.** What about the TGI (PC-3 prostate) of the same molecule?
**A.** 16.8 µM

**Q.** And the GI50 (ACHN renal)?
**A.** 1.87 µM

**Q.** And the TGI (ACHN renal)?
**A.** 15.4 µM

**Q.** What about the GI50 (OVCAR-4 ovarian) of the same molecule?
**A.** 10.4 µM

**Q.** What about the TGI (OVCAR-4 ovarian) of the same molecule?
**A.** 22.2 µM

**Q.** And the GI50 (U251 glioblastoma)?
**A.** 2.57 µM

**Q.** And the TGI (U251 glioblastoma)?
**A.** 11.3 µM

**Q.** What about the GI50 (MDA-MB-435 melanoma) of the same molecule?
**A.** 0.415 µM

**Q.** What about the TGI (MDA-MB-435 melanoma) of the same molecule?
**A.** 11.6 µM

**Q.** And the GI50 (SF-539 CNS)?
**A.** 1.62 µM

**Q.** What about the TGI (SF-539 CNS) of the same molecule?
**A.** 3.02 µM

**Q.** What about the GI50 (OVCAR-3 ovarian) of the same molecule?
**A.** 3.43 µM

**Q.** What about the TGI (OVCAR-3 ovarian) of the same molecule?
**A.** 13.7 µM

**Q.** And the GI50 (CAKI-1 renal)?
**A.** 0.994 µM

**Q.** What about the TGI (CAKI-1 renal) of the same molecule?
**A.** 14.4 µM

**Q.** And the GI50 (SN12C renal)?
**A.** 1.52 µM

**Q.** And the TGI (SN12C renal)?
**A.** 13.2 µM

**Q.** What about the GI50 (EKVX NSCLC) of the same molecule?
**A.** 2.75 µM

**Q.** And the TGI (EKVX NSCLC)?
**A.** 12.6 µM

**Q.** What about the GI50 (SW-620 colon) of the same molecule?
**A.** 0.371 µM

**Q.** What about the TGI (SW-620 colon) of the same molecule?
**A.** 10.4 µM

**Q.** And the GI50 (T-47D breast)?
**A.** 2.65 µM

**Q.** And the TGI (T-47D breast)?
**A.** 6.46 µM

**Q.** What about the GI50 (K-562 leukemia) of the same molecule?
**A.** 1.17 µM

**Q.** What about the TGI (K-562 leukemia) of the same molecule?
**A.** 2.42 µM

**Q.** What about the GI50 (HOP-92 NSCLC) of the same molecule?
**A.** 0.888 µM

**Q.** What about the TGI (HOP-92 NSCLC) of the same molecule?
**A.** 2.17 µM

**Q.** What about the GI50 (UO-31 renal) of the same molecule?
**A.** 1.61 µM

**Q.** And the TGI (UO-31 renal)?
**A.** 5.39 µM

**Q.** And the GI50 (MALME-3M melanoma)?
**A.** 0.0318 µM

**Q.** What about the TGI (MALME-3M melanoma) of the same molecule?
**A.** 0.118 µM

**Q.** What about the GI50 (HOP-62 NSCLC) of the same molecule?
**A.** 1.28 µM

**Q.** And the TGI (HOP-62 NSCLC)?
**A.** 8.42 µM

**Q.** And the GI50 (BT-549 breast)?
**A.** 2.25 µM

**Q.** What about the TGI (BT-549 breast) of the same molecule?
**A.** 5.84 µM

**Q.** And the GI50 (SK-MEL-5 melanoma)?
**A.** 0.281 µM

**Q.** And the TGI (SK-MEL-5 melanoma)?
**A.** 1.62 µM

**Q.** What about the GI50 (A498 renal) of the same molecule?
**A.** 1.22 µM

**Q.** What about the TGI (A498 renal) of the same molecule?
**A.** 2.5 µM

**Q.** And the GI50 (KM12 colon)?
**A.** 0.66 µM

**Q.** And the TGI (KM12 colon)?
**A.** 2.75 µM

**Q.** What about the GI50 (SK-MEL-28 melanoma) of the same molecule?
**A.** 0.187 µM

**Q.** What about the TGI (SK-MEL-28 melanoma) of the same molecule?
**A.** 0.528 µM

**Q.** And the GI50 (SF-268 CNS)?
**A.** 1.7 µM

**Q.** And the TGI (SF-268 CNS)?
**A.** 5.37 µM

**Q.** And the GI50 (CCRF-CEM leukemia)?
**A.** 1.93 µM

**Q.** And the TGI (CCRF-CEM leukemia)?
**A.** 3.57 µM

**Q.** What about the GI50 (NCI-H522 lung) of the same molecule?
**A.** 4.33 µM

**Q.** And the TGI (NCI-H522 lung)?
**A.** 16.9 µM

**Q.** What about the GI50 (SK-OV-3 ovarian) of the same molecule?
**A.** 4.99 µM

**Q.** What about the TGI (SK-OV-3 ovarian) of the same molecule?
**A.** 17.8 µM

**Q.** What about the GI50 (RPMI-8226 leukemia) of the same molecule?
**A.** 1.78 µM

**Q.** And the TGI (RPMI-8226 leukemia)?
**A.** 4.38 µM

**Q.** And the GI50 (MCF7 breast)?
**A.** 1.88 µM

**Q.** What about the TGI (MCF7 breast) of the same molecule?
**A.** 3.62 µM

**Q.** What about the GI50 (UACC-257 melanoma) of the same molecule?
**A.** 0.156 µM

**Q.** And the TGI (UACC-257 melanoma)?
**A.** 0.428 µM
